Data taken from patent US20100190768A1, “NOVEL FUSED PYROLE DERIVATIVE” (Dainippon Sumitomo Pharma Co., Ltd., priority 2005, published 2010).

Columns and labels:
human GRα protein = target: T1, human GRα protein (Homo sapiens, UniProt P04150); assay: Binding inhibitory assay (displacement of 3H-dexamethasone from the cytoplasm fraction of baculovirus-infected insect cells); settings: 100 nM test compound; 3H-Dex; NSB with 10 μM dexamethasone; read-out: Binding Inhibitory ratio (%) of 100 nM of test compound
T1 construct: made in house; host or cells: insect cells infected with baculovirus; cytoplasm fraction used
T1 sequence (P04150 1-777): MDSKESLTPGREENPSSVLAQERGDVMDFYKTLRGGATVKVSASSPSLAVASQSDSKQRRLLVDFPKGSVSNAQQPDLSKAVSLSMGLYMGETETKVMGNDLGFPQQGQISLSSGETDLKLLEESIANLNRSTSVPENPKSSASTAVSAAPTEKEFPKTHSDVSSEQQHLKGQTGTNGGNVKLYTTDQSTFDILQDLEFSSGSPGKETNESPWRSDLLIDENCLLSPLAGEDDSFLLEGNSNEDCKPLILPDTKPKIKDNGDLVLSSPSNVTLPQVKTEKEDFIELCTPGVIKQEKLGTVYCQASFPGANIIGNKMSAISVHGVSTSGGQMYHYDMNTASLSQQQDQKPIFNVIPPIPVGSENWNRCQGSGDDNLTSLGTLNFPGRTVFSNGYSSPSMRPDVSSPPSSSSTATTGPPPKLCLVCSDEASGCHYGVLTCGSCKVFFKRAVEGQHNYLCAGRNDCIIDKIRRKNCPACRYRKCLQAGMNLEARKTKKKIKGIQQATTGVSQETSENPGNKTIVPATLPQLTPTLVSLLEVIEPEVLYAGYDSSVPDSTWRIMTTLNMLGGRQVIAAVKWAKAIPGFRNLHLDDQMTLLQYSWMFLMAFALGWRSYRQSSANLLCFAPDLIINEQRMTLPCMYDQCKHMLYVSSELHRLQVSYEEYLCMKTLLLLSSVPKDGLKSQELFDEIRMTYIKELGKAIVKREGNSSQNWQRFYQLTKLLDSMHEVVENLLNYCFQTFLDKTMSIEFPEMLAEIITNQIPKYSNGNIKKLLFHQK
Procedure, shortened: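 Cytosol from baculovirus-infected insect cells expressing human GRα incubated with compound and 10 nM ³H-dexamethasone solution in Tris/EDTA/glycerol/DTT/molybdate buffer, pH 7.6, 1% DMSO, 16–20 h at 4 °C. Free ligand removed with dextran-coated charcoal, supernatant counted; NSB from 10 μM dexamethasone, inhibition % vs DMSO, duplicates.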

H4-III-E cells = assay: TAT (tyrosine aminotransferase) assay; type: cell-based; settings: for Antagonistic activity of 10 μM test compound: 10 μM test compound together with 0.005 μM dexamethasone, inhibitory ratio against TAT activity increase by Dex
Procedure, shortened: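 Rat hepatoma H4-III-E cells were treated overnight with compound, either alone for agonism or together with 0.005 μM dexamethasone for antagonism. TAT activity in lysates was read at 331 nm after reaction at 37 °C. Activity was expressed as % of the dexamethasone response, or as % inhibition of the dexamethasone-induced increase, and scored at a 10% cutoff.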

[1] = 10 μM test compound alone, relative to maximum Dex-induced TAT activity (100%)

Row | Compound | inhibition at 0.1 µM (human GRα protein) [%] | Agonistic activity of 10 μM test compound (H4-III-E cells; [1]) | Antagonistic activity of 10 μM test compound (H4-III-E cells) | activation at 10 µM (H4-III-E cells; 10 μM test compound alone, relative to maximum Dex-induced TAT activity (100%), read-out: Agonistic activity of 10 μM test compound) [%]
1 | CS(=O)(=O)C1CCN(CC(O)(c2cn(Cc3ccccc3)c3cc([N+](=O)[O-])ccc23)C(F)(F)F)CC1 (stereo not drawn) [Example 183, 2-(1-Benzyl-6-nitro-1H-indol-3-yl)-1,1,1-trifluoro-3-[4-(methylsulfonyl)piperidin-1-yl]propan-2-ol] | 88 | ◯ | ◯ | –
2 | COc1cc(CC(=O)O)ccc1OC1CCN(CC(O)(c2cn(Cc3ccncc3)c3cc(C#N)ccc23)C(F)(F)F)CC1 (stereo not drawn) [Example 235, {4-[(1-{2-[6-Cyano-1-(pyridin-4-ylmethyl)-1H-indol-3-yl]-3,3,3-trifluoro-2-hydroxypropyl}piperidin-4-yl)oxy]-3-methoxyphenyl}acetic acid] | 79 | – | ◯ | < 10
3 | COc1ccc(C(=O)C2CCN(CC(O)(c3cn(Cc4ccccc4)c4cc([N+](=O)[O-])ccc34)C(F)(F)F)CC2)cc1 (stereo not drawn) [Example 73, {1-[2-(1-Benzyl-6-nitro-1H-indol-3-yl)-3,3,3-trifluoro-2-hydroxypropyl]piperidin-4-yl}(4-methoxyphenyl)methanone] | 95 | ◯ | ◯ | –
